Experimental data reported in patent publication US9521850B2 (University of Florida Research Foundation, Incorporated, priority 2012, dated 2016).
Converted amounts (≈) assume the structure as drawn.

Experiments:
Sinorhizobium meliloti = assay: microbe, parasite or virus in culture; assay type: cell-based
CLAS = CLAS transmission rate using graft-based approach (Example 3); assay type: in vivo; conditions: budwood treated at 500 μg/ml, grafted onto Valencia trees
Experimental: HLB-infected budwoods were collected in HLB infected grove in teaching block at CREC. The presence of CLAS titers in budwood was confirmed by qPCR.
C16 and streptomycin were applied at the rate of 500 μg/ml; water-treated budwood was used as check. The budwoods were placed in a glass bottle containing either treatment or water as check. The glass bottles were kept in a ventilation hood with light on to increase the evaporation rate, therefore, promoting the uptake of antibiotics. Leaf and bark samples were collected from each budwood and 100 mg were accurately weighed and used for DNA extraction with Promega genomic DNA extraction kit. CLAS populations in each sample were determined using standard qPCR protocol. Each DNA sample was run in triplicate wells.
After overnight treatment, the antibiotic-treated budwood was grafted onto 2-3 years old Valencia trees. A total of 15 trees were grafted for each treatment. […] Four leaves from the main stem of Valencia trees were sampled for DNA extraction and determination of CLAS populations.

SecA of Ca. L. asiaticus = SecA of Ca. L. asiaticus (Candidatus Liberibacter asiaticus, UniProt A0ABM5NFG5); assay: biochemical
Liberibacter crescens = assay: microbe, parasite or virus in culture; assay type: cell-based
Bradyrhizobium japonicum = assay: microbe, parasite or virus in culture; assay type: cell-based
[1] = system: Agrobacterium tumefaciens; assay: microbe, parasite or virus in culture; assay type: cell-based
Rhizobium etli = assay: microbe, parasite or virus in culture; assay type: cell-based
Xanthomonas citri = assay: microbe, parasite or virus in culture; assay type: cell-based, Xanthomonas citri subsp. citri
Mesorhizobium loti = assay: microbe, parasite or virus in culture; assay type: cell-based
A. tumefaciens = assay: microbe, parasite or virus in culture; assay type: cell-based; conditions: Agrobacterium tumefaciens, 24 h
CLAS populations = assay: Effect on CLAS populations, mean Ct by quantitative PCR (Example 2)

Row | Structure (SMILES) | MBC (Sinorhizobium meliloti) | MIC (Sinorhizobium meliloti) | MBC (Liberibacter crescens; 24 h) | MIC (Liberibacter crescens; 24 h) | MBC (Liberibacter crescens; 120 h) | MIC (Liberibacter crescens; 120 h) | MBC (Bradyrhizobium japonicum; 24 hrs) | MIC (Bradyrhizobium japonicum; 24 hrs) | MBC (Bradyrhizobium japonicum; 120 hrs) | MIC (Bradyrhizobium japonicum; 120 hrs) | MBC [1] | MIC [1] | MBC (Rhizobium etli; 24 hrs) | MIC (Rhizobium etli; 24 hrs) | MBC (Rhizobium etli; 120 hrs) | MIC (Rhizobium etli; 120 hrs) | MBC (Xanthomonas citri) | MIC (Xanthomonas citri) | MBC (Mesorhizobium loti) | MIC (Mesorhizobium loti) | other results
1 | CCc1nnc(NC(=O)c2cc3c([nH]c4ccccc43)c(C)n2)s1 [Compound C16, N-(5-ethyl-1,3,4-thiadiazol-2-yl)-1-methyl-9H-beta-carboline-3-carboxamide] | 64 µg/mL (≈ 190 µM) | 32 µg/mL (≈ 94.8 µM) | 16 µg/mL (≈ 47.4 µM) | 8 µg/mL (≈ 23.7 µM) | 32 µg/mL (≈ 94.8 µM) | 16 µg/mL (≈ 47.4 µM) | 16 µg/mL (≈ 47.4 µM) | 16 µg/mL (≈ 47.4 µM) | 32 µg/mL (≈ 94.8 µM) | 32 µg/mL (≈ 94.8 µM) | 128 µg/mL (≈ 379 µM) | 64 µg/mL (≈ 190 µM) | 16 µg/mL (≈ 47.4 µM) | 16 µg/mL (≈ 47.4 µM) | 32 µg/mL (≈ 94.8 µM) | 32 µg/mL (≈ 94.8 µM) | 32 µg/mL (≈ 94.8 µM) | 16 µg/mL (≈ 47.4 µM) | 16 µg/mL (≈ 47.4 µM) | 8 µg/mL (≈ 23.7 µM) | CLAS transmission rate (% trees tested positive for CLAS) (CLAS; 3 months after grafting): 6.7%; CLAS transmission rate (% trees tested positive for CLAS) (CLAS; 6 months after grafting): 80%; IC50 (SecA of Ca. L. asiaticus): 0.25 µM; inhibition of ATPase activity of SecA, in words (SecA of Ca. L. asiaticus): high activity; MBC (A. tumefaciens): 256 µg/mL (≈ 759 µM); mean Ct value (CLAS populations) (CLAS populations; 2 days after treatment): 23.76 a; mean Ct value (CLAS populations) (CLAS populations; 4 days after treatment): 25.43 b; mean Ct value (CLAS populations) (CLAS populations; Before treatment): 22.71 a; CLAS population reduction as compared to water-treated control (CLAS populations; P<0.05, Fisher's LSD): significant effect
2 | COc1cc(-c2cc(-c3ccccc3)nc3sc(C(=O)O)c(N)c23)cc(OC)c1OC [Compound C17, 3-amino-6-phenyl-4-(3,4,5-trimethoxy-phenyl)thieno [2,3-b]pyridine-2-carboxylic acid] | 32 µg/mL (≈ 73.3 µM) | 16 µg/mL (≈ 36.7 µM) | 16 µg/mL (≈ 36.7 µM) | 16 µg/mL (≈ 36.7 µM) | 32 µg/mL (≈ 73.3 µM) | 32 µg/mL (≈ 73.3 µM) | 32 µg/mL (≈ 73.3 µM) | 16 µg/mL (≈ 36.7 µM) | 64 µg/mL (≈ 147 µM) | 32 µg/mL (≈ 73.3 µM) | 64 µg/mL (≈ 147 µM) | 64 µg/mL (≈ 147 µM) | 64 µg/mL (≈ 147 µM) | 32 µg/mL (≈ 73.3 µM) | 64 µg/mL (≈ 147 µM) | 32 µg/mL (≈ 73.3 µM) | 32 µg/mL (≈ 73.3 µM) | 16 µg/mL (≈ 36.7 µM) | 32 µg/mL (≈ 73.3 µM) | 16 µg/mL (≈ 36.7 µM) | IC50 (SecA of Ca. L. asiaticus): 0.92 µM; MBC (A. tumefaciens): 256 µg/mL (≈ 586 µM)
3 | COc1ccc(NC(=O)C2(NC(=O)c3ccc(-n4cnnn4)cc3)CCCCC2)cc1 [Compound C18, N-(1-{[(4-methoxy-phenyl)amino]carbonyl}cyclo-hexyl)-4-(1H-tetrazol-1-yl)benzamide] | 64 µg/mL (≈ 152 µM) | 32 µg/mL (≈ 76.1 µM) | 8 µg/mL (≈ 19 µM) | 8 µg/mL (≈ 19 µM) | 16 µg/mL (≈ 38.1 µM) | 16 µg/mL (≈ 38.1 µM) | 8 µg/mL (≈ 19 µM) | 8 µg/mL (≈ 19 µM) | 16 µg/mL (≈ 38.1 µM) | 16 µg/mL (≈ 38.1 µM) | 128 µg/mL (≈ 304 µM) | 32 µg/mL (≈ 76.1 µM) | 16 µg/mL (≈ 38.1 µM) | 16 µg/mL (≈ 38.1 µM) | 32 µg/mL (≈ 76.1 µM) | 32 µg/mL (≈ 76.1 µM) | 32 µg/mL (≈ 76.1 µM) | 16 µg/mL (≈ 38.1 µM) | 32 µg/mL (≈ 76.1 µM) | 16 µg/mL (≈ 38.1 µM) | IC50 (SecA of Ca. L. asiaticus): 0.48 µM; MBC (A. tumefaciens): 256 µg/mL (≈ 609 µM)
4 | COc1ccc2nc(NC(=O)CSc3nc4cc(C)ccc4[nH]3)sc2c1 [Compound C19, N-(6-methoxy-1,3-benzo-thiazol-2-yl)-2-[(5-methyl-1H-benz-imidazol-2-yl)thio]acetamide] | 64 µg/mL (≈ 166 µM) | 32 µg/mL (≈ 83.2 µM) | 8 µg/mL (≈ 20.8 µM) | 8 µg/mL (≈ 20.8 µM) | 16 µg/mL (≈ 41.6 µM) | 16 µg/mL (≈ 41.6 µM) | 32 µg/mL (≈ 83.2 µM) | 32 µg/mL (≈ 83.2 µM) | 64 µg/mL (≈ 166 µM) | 64 µg/mL (≈ 166 µM) | 128 µg/mL (≈ 333 µM) | 32 µg/mL (≈ 83.2 µM) | 32 µg/mL (≈ 83.2 µM) | 32 µg/mL (≈ 83.2 µM) | 64 µg/mL (≈ 166 µM) | 32 µg/mL (≈ 83.2 µM) | 64 µg/mL (≈ 166 µM) | 32 µg/mL (≈ 83.2 µM) | 32 µg/mL (≈ 83.2 µM) | 16 µg/mL (≈ 41.6 µM) | IC50 (SecA of Ca. L. asiaticus): 0.64 µM; MBC (A. tumefaciens): 128 µg/mL (≈ 333 µM)
5 | [H]/N=C(/N)N[C@H]1[C@H](O)[C@@H](O)[C@H](O[C@@H]2O[C@@H](C)[C@](O)(C=O)[C@H]2O[C@@H]2O[C@@H](CO)[C@H](O)[C@@H](O)[C@@H]2NC)[C@@H](N/C(N)=N\[H])[C@@H]1O [Streptomycin, reference compound] | 128 µg/mL (≈ 220 µM) | 64 µg/mL (≈ 110 µM) | 16 µg/mL (≈ 27.5 µM) | 16 µg/mL (≈ 27.5 µM) | 32 µg/mL (≈ 55 µM) | 32 µg/mL (≈ 55 µM) | 32 µg/mL (≈ 55 µM) | 32 µg/mL (≈ 55 µM) | 32 µg/mL (≈ 55 µM) | 32 µg/mL (≈ 55 µM) | 128 µg/mL (≈ 220 µM) | 64 µg/mL (≈ 110 µM) | 4 µg/mL (≈ 6.88 µM) | 4 µg/mL (≈ 6.88 µM) | 16 µg/mL (≈ 27.5 µM) | 16 µg/mL (≈ 27.5 µM) | 32 µg/mL (≈ 55 µM) | 32 µg/mL (≈ 55 µM) | 32 µg/mL (≈ 55 µM) | 16 µg/mL (≈ 27.5 µM) | CLAS transmission rate (% trees tested positive for CLAS) (CLAS; 3 months after grafting): 13.3%; CLAS transmission rate (% trees tested positive for CLAS) (CLAS; 6 months after grafting): 66.7%; MBC (A. tumefaciens): 64 µg/mL (≈ 110 µM)
